“Also recorded” adds a separate entry of the source.
How the values were obtained:
CNR1 = CNR1 (Homo sapiens (Human), UniProt P21554); test: cAMP Hunter antagonist assay, CB1; type: cell-based; details: cAMP antagonist mode
Experimental: (§1) Cannabinoid receptors belong to G-protein-coupled receptors which may transduce intracellular agonist-antagonist responses regulating in part levels of cAMP within the cells. Fenchone derivates were assayed using Eurofins proprietary assays (i.e. CB1-Antagonist Catalog #86-0007P-2277AN; CB2-Antagonist Catalog ref. 86-0007P-2818AN; CB1-Agonist; Catalog #86-0007P-2277AG; CB2-Agonist-Catalog #86-0007P-2818AG).
(§2) Briefly, for antagonist activity, cAMP Hunter™ Gi cell lines overexpress naturally Gi coupled, wild type GPCRs and are designed to detect inhibition of intracellular cAMP production in response to agonist stimulation of the receptor. These cell lines are designed to be used in conjunction with the HitHunter® cAMP Assay Detection Kit.
as §2, with “Similarly,” for “Briefly,”, “agonist” for “antagonist”, “Gs” for “Gi”, “increases in” for “inhibition of”, “levels” for “production”, “Kit. […]” for “Kit.”

CNR2 [1] = biological target: T1, CNR2 (Homo sapiens (Human), UniProt P34972); test: cAMP Hunter agonist assay, CHO-K1 cells expressing CB2; type: cell-based; details: for EC50: cells expressing CNR2; for agonist response CNR2: cells expressing CNR2, cAMP
Experimental: as §1
Similarly, for agonist activity, cAMP Hunter™ Gs cell lines overexpress naturally Gs coupled, wild type GPCRs and are designed to detect increases in intracellular cAMP levels in response to agonist stimulation of the receptor. These cell lines are designed to be used in conjunction with the HitHunter® cAMP Assay Detection Kit. For both assays, human CB1 or CB2 receptors were stably transfected CHO-K1 cells and subjected to positive controls, known to activate the increase of cAMP for both receptors (Agonist control 20 μM Forskolin for CB1 and 25 μM Forskolin for CB2) or inhibit cAMP intracellular levels of CB1 ([…] CP55940) or CB2 ([…] CP55940). Cells were seeded in a total volume of 20 μL into white walled, 384-well microplates and incubated at 37° C. overnight. Prior to testing cell plating media was exchanged with 10 uL of Assay buffer (HBSS+10 mM HEPES). Five 5 μL of agonist (test sample, vehicle or positive control) were added to cells and incubated at 37° C. for 30 minutes. Final assay vehicle concentration was 1% and the results are expressed in relation to the control ligand.

[2] = system: Human OA derived articular chondrocytes; test: cAMP-Glo EC50 in chondrocyte cell cultures; type: cell-based; details: 45 min treatment
Excerpt: All human cell cultures were obtained from total knee replacement surgery (TKA) in accordance with Hadassah Medical Center Institutional Review Board approval and in accordance with the Helsinki Declaration ethical principles for medical research involving human subjects (Study #0488-09). Following written informed consent, articular cartilage was obtained from the knee joints of OA patients undergoing total knee arthroplasty (n=51, mean age 71 years, mean body mass index 31 kg/m2, Kellgren and Lawrence score ranging 3-4). Articular cartilage tissue was dissected, chondrocytes isolated and plated as described by Bar Oz et al., (10). Isolated chondrocytes were passaged to passage 3, and plated in 96 well plates with DMEM media containing 10% FCS, 1% Penicillin-streptomycin, 1% Amphotericin B. Cultures were maintained in standard incubation conditions (37° C., 5% CO2) until confluence. All reagents for cell culture were purchased for Biological Industries (Israel, Beit-Haemek Kibutz), unless otherwise indicated. […] Luminescence was measured and a standard curve was simultaneously run per plate. […] Using this ΔRLU value and the linear equation generated from the standard curve, the cAMP concentration was calculated. […]

[3] = system: zymosan-induced hyperalgesia; test: zymosan mouse paw inflammatory pain model, von Frey test, with or without CB2 antagonists; type: in vivo; details: for von Frey pain effect: SR144528 experiment, 25 mg/kg IP
Experimental: To induce inflammation, 40 μL of 1.5% (w/v) zymosan A (Sigma) suspended in 0.9% saline was injected into the sub-planter surface of the right hind paw of the mice. Immediately after zymosan injection, antagonists were injected intraperitoneally (IP) and after 30 minutes, the fenchone derivatives dissolved in 0.1 mL vehicle containing ethanol:Cremophore:saline at a ratio of 1:1:18 were injected. Control mice were injected with the vehicle only. After 2, 6, and 24 hrs, paw swelling, and pain perception were measured.
Specifically, measurement of Oedema Formation was assessed by monitoring paw swelling via calibrated calipers (0.01 mm), 6 and 24 hrs following injections of zymosan alone and/or the test compounds. Pain hyperalgesia was evaluated by the paw withdrawal von Frey test at 6, and 24 h following injections of zymosan and/or the test compounds. […] In this study, only 1.4-60 g corresponding to 4.17 to 5.88 log of force was used, to test the mouse sensitivity to a mechanical stimulus on the swollen paw. The measurements were performed in a quiet room. Before paw pain measurements, the animals were held for 10 sec. The trained investigator applied the filament to the central area of the hind paw with gradual increasing size. The test consisted of poking the middle of the hind paw to provoke a flexion reflex followed by a clear flinch response after paw withdrawal. Each one of the von Frey filaments was applied for approximately 3-4 s to induce the end-point reflex. The first testing was done by using the force filament of 1.4 g. If there was no withdrawal response, the next higher stimulus was tried. The mechanical threshold force (in grams (g)) was defined as the lowest force imposed by two von Frey monofilaments of various sizes, required to produce a paw retraction. The untreated left hind paw served as a control.

hCB2R = hCB2R (Homo sapiens (Human), UniProt P34972); test: [3H]CP-55,940 competition displacement binding, membranes of CHO-K1 cells expressing human CB2R; details: for Ki: displacement of [3H]CP-55,940; for mCB1R/hCB2R: selectivity index from Ki values
Experimental: Affinity for Cannabinoid Receptors. The compounds were further characterized using a radioligand binding assay to determine their affinities for CB1R and CB2R based on each test compound's ability to displace the radiolabeled CB1R/CB2R agonist CP-55,940 from membranes prepared from a mouse brain (a source of CB1R) and membranes of cells expressing the human CB2R. […] Therefore, the compounds were assayed using membranes from CHO-K1 cells expressing the human CB2R (hCB2R).
Membranes from cells expressing human CB2R were purchased from Charles River, (Cat #A308; Ohio, US). Solutions of test compounds ranging from 0.1 nM to 10 mM were prepared in DMSO. The desired amount of membrane preparation was diluted with ice-cold assay buffer (50 mM Tris-HCl, 2.5 mM EDTA, 5 mM MgCl2, 0.1% BSA, pH 7.4) and was vortexed. […] The assays were incubated for 90 minutes at 30° C. and then immediately filtered on WHATMAN GF/B FilterPaper (Fired) using a Brandel M-24R Harvester followed by six washes with ice cold wash buffer (50 mM Tris-HCl, 2.5 mM EDTA, 5 mM MgCl2, 0.1% BSA, pH 7.4). Radioactivity was detected by adding the FilterPaper directly to the ULTIMA GOLD scintillation cocktail (PerkinElmer), incubation at 20° C. for 60 min and then counted using a Tri-Carb 4910TR liquid scintillation counter.

CNR2 [4] = biological target: T1, CNR2; test: cAMP Hunter antagonist assay, CB2; type: cell-based; details: cAMP antagonist mode
Experimental: as §1, §2
as §2, with “Similarly,” for “Briefly,”, “agonist” for “antagonist”, “Gs” for “Gi”, “increases in” for “inhibition of”, “levels” for “production”, “Kit. […]” for “Kit.”

Sequence of hCB2R (P34972 whole entry): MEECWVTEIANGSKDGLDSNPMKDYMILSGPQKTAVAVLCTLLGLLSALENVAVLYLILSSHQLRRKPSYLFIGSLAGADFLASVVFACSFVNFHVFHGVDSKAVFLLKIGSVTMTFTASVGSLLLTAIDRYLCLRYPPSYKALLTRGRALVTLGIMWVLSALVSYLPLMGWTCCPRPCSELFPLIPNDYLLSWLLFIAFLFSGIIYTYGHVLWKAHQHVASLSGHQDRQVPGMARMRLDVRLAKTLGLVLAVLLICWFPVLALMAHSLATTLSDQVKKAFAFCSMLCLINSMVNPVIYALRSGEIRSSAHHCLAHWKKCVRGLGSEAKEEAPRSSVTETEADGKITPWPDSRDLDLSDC

SMILES | antagonistic effect CNR1 (CNR1) | EC50 (CNR2 [1]) | agonist response CNR2 (CNR2 [1]) | EC50 in chondrocytes compared with HU308 [2] | von Frey pain phenotype ([3]; 25 mg/kg IP alone, AM630 experiment) | von Frey pain effect [3] | Ki (hCB2R) | selectivity for the hCB2R over the mCB1R (hCB2R; from Ki values) | mCB1R/hCB2R (hCB2R) | antagonistic effect CNR2 (CNR2 [4])
CCCCCCC(C)(C)c1cc(OC)c([C@]2(O)C3(C)CCC(C3)C2(C)C)c(OC)c1 (stereo partly drawn) [Compound 1d, 2-(2,6′-dimethoxy-4′-(2″-methyloctan-2″-yl)phenyl)-1,3,3-trimethyl-bicyclo[2.2.1]heptan-2-ol] | no detectable antagonistic effect | 10 nM | noticeable response | low EC50; also recorded: superior EC50 over HU308 | significant affect | insignificant | 3.51 nM | 121 fold | 121.8 | no detectable antagonistic effect
CCCCCc1cc(OC)c(C2(O)C3(C)CCC(C3)C2(C)C)c(OC)c1 (single isomer, unassigned) [Compound 1b, 2-(2,6′-dimethoxy-4′-pentylphenyl)-1,3,3-trimethylbicyclo[2.2.1]heptan-2-ol] | no detectable antagonistic effect | 50 nM | noticeable response | low EC50; also recorded: superior EC50 over HU308 | – | insignificant | 14.4 nM | – | 158.3 | no detectable antagonistic effect

Source: patent US20250002435A1, “ARYLATED FENCHONE DERIVATIVES, COMPOSITIONS COMPRISING THEM, PROCESSES FOR THEIR PREPARATION AND USES THEREOF” (priority 2021, published 2025)
